{"source": "patent US8178506B2", "about": "“Oligomeric compounds and compositions for use in modulation of small non-coding RNAs” (Regulus Therapeutics Inc., priority 2003, dated 2012)", "key": {"[1]": {"tested_on": "PEPCK-c", "assay": "PEPCK-c mRNA expression in HepG2 cells", "format": "cell-based, human", "details": "for PEPCKc mRNA expression: Experiment 2, insulin treated: HepG2 cells transfected with oligomeric compound, 1 nM insulin for four hours, UTC + 1 nM insulin = 100; for decrease in PEPCK-c mRNA: HepG2, basal (no insulin)", "experimental": "(§1) Approximately 28 hours after transfection, the cells are subjected to serum starvation for a period of 12 to 16 hours, using serum-free growth medium. Following serum starvation, cells are treated with 1 nM insulin (insulin-treated) or are left untreated (basal conditions) for approximately four hours. At the same time, untreated control cells in both plates are treated with 100 nM insulin to determine the maximal insulin response. Following insulin treatment (forty-eight hours after transfection), total RNA is harvested from all samples, and the amount of total RNA from each sample is determined using a Ribogreen assay (Invitrogen Corporation, Carlsbad, Calif.). Real-time PCR is performed on the total RNA samples using primer/probe sets for three insulin responsive genes: insulin-like growth factor binding protein-1 (IGFBP-1), cytosolic PEPCK (PEPCK-C), and follistatin. Gene expression levels obtained by real-time PCR are normalized for total RNA content in the samples.\n(§2) Oligomeric compounds of the present invention were tested for their effects on insulin signaling in HepG2 cells. HepG2 cells were plated at 7500 cells/well in collagen coated 96-well plates. The following day, cells were transfected with oligomeric compounds targeting miRNAs using 100 nM oligomeric compound in LIPOFECTIN™ (Invitrogen Corporation, Carlsbad, Calif.) in two 96-well plates. The oligomeric compounds were tested in triplicate on each 96-well plate, except for positive and negative controls, which were measured up to six times per plate. At the end of transfection, the transfection medium was replaced by regular growth medium. Twenty-eight hours post-transfection, the cells were subjected to overnight (sixteen to eighteen hours) serum starvation using serum free growth medium. Forty-four hours post-transfection, the cells in the transfected wells were treated with either no insulin (“basal” Experiment 1, for identification of insulin-mimetic compounds) or with 1 nM insulin (“insulin treated” Experiment 2, for identification of insulin sensitizers) for four hours. At the same time, in both plates, cells in some of the un-transfected control wells are treated with 100 nM insulin to determine maximal insulin response. At the end of the insulin or no-insulin treatment (forty-eight hours post-transfection), total RNA is isolated from both the basal and insulin treated (1 nM) 96-well plates, and the amount of total RNA from each sample is determined using a Ribogreen assay (Molecular Probes, Eugene, Oreg.). Real-time PCR is performed on all the total RNA samples using primer/probe sets for three insulin responsive genes: PEPCK-c, IGFBP-1 and follistatin. Expression levels for each gene are normalized to total RNA, and values+standard deviation are expressed relative to the transfectant only untreated control (UTC) and negative control compounds.\n(§3) Protocols for treatment of HepG2 cells and transfection of oligomeric compounds are as described in Example 18. Also as described in Example 18, forty-four hours post-transfection, the cells in the transfected wells were treated with either no insulin (“basal” Experiment 3 (below), for identification of insulin-mimetic compounds) or with 1 nM insulin (“insulin treated” Experiment 4 (below), for identification of insulin sensitizers) for four hours. At the same time, in both plates, cells in some of the un-transfected control wells are treated with 100 nM insulin to determine maximal insulin response. At the end of the insulin or no-insulin treatment (forty-eight hours post-transfection), total RNA is isolated from both the basal and insulin treated (1 nM) 96-well plates, and the amount of total RNA from each sample is determined using a Ribogreen assay (Molecular Probes, Eugene, Oreg.)."}, "[2]": {"tested_on": "IGFBP-1", "assay": "IGFBP-1 mRNA expression in HepG2 cells", "format": "cell-based, human", "details": "for IGFBP1 mRNA expression: Experiment 2, insulin treated: HepG2 cells transfected with oligomeric compound, 1 nM insulin for four hours, UTC + 1 nM insulin = 100", "experimental": "as §1, §2, §3"}, "[3]": {"tested_on": "follistatin", "assay": "Follistatin mRNA expression in HepG2 cells", "format": "cell-based, human", "details": "for Follistatin mRNA expression: Experiment 2, insulin treated: HepG2 cells transfected with oligomeric compound, 1 nM insulin for four hours, UTC + 1 nM insulin = 100", "experimental": "as §1, §2, §3"}, "[4]": {"tested_on": "BJ, B16-F10, T47D, T47Dp53 and HeLa cells", "assay": "Cell cycle assay (propidium iodide flow cytometry), cell line panel", "format": "cell-based", "details": "150 nM oligomeric compound, 4.5 μg/ml LIPOFECTIN, after 72 hours, propidium iodide flow cytometry"}, "[5]": {"tested_on": "HeLa cells", "assay": "Cell cycle assay in HeLa cells", "format": "cell-based, human", "details": "HeLa cells, 150 nM oligomeric compound"}, "[6]": {"tested_on": "T47D cells", "assay": "Caspase-3 activity assay (apoptosis) in T47D cells", "details": "T47D cells, 200 nM oligomeric compound, 48 hours; experiment of Table 12"}, "[7]": {"details": "Experiment 3, basal (no insulin), HepG2 cells, 48 hours post-transfection"}, "[8]": {"details": "Experiment 4, insulin-sensitization: HepG2 cells treated with 1 nM insulin for four hours, 48 h post-transfection, mRNA by real-time PCR"}, "[9]": {"details": "24 hours, relative to untreated control (UTC = 100)"}, "[10]": {"details": "48 hours after treatment, relative to untreated control (UTC=100)"}}, "note": "In the oligonucleotide strings, read from the 5' end, every base follows the letter of its sugar. An asterisk marks phosphorothioate; unmarked linkages are phosphodiester. Other units and linkages are bracketed, terminal groups are in braces. A string of capitals states the bases alone. e = 2'-O-(2-methoxyethyl) (MOE); [5mC] = 5-methylcytosine; d = 2'-deoxy (DNA)"}
{"substance": "328761 (antisense eG*e[5mC]*eA*eG*eG*d[5mC]*dT*dA*dA*dA*dA*dG*dA*dA*dA*eT*eA*eA*eG*e[5mC]) [compound 328761]", "values": [{"measurement": "PEPCKc mRNA expression", "setting": "[1]", "value": 64}, {"measurement": "PEPCK-c (% UTC)", "setting": "[1]; [7]", "value": 48, "unit": "% UTC"}, {"measurement": "PEPCK-c (% UTC)", "setting": "[1]; [8]", "value": 55, "unit": "% UTC"}, {"measurement": "IGFBP1 mRNA expression", "setting": "[2]", "value": 193}, {"measurement": "IGFBP-1 (% UTC)", "setting": "[2]; [7]", "value": 118, "unit": "% UTC"}, {"measurement": "IGFBP-1 (% UTC)", "setting": "[2]; [8]", "value": 93, "unit": "% UTC"}, {"measurement": "Follistatin mRNA expression", "setting": "[3]", "value": 53}, {"measurement": "Follistatin (% UTC)", "setting": "[3]; [7]", "value": 91, "unit": "% UTC"}, {"measurement": "Follistatin (% UTC)", "setting": "[3]; [8]", "value": 98, "unit": "% UTC"}]}
{"substance": "328779 (antisense eT*eG*eT*eT*eT*dG*dT*d[5mC]*dT*d[5mC]*d[5mC]*dA*dA*dG*dA*eA*eA*e[5mC]*eG*eT) [compound 328779]", "values": [{"measurement": "PEPCK-c (% UTC)", "setting": "[1]; [7]", "value": 123, "unit": "% UTC"}, {"measurement": "PEPCK-c (% UTC)", "setting": "[1]; [8]", "value": 78, "unit": "% UTC"}, {"measurement": "IGFBP-1 (% UTC)", "setting": "[2]; [7]", "value": 135, "unit": "% UTC"}, {"measurement": "IGFBP-1 (% UTC)", "setting": "[2]; [8]", "value": 128, "unit": "% UTC"}, {"measurement": "Follistatin (% UTC)", "setting": "[3]; [7]", "value": 109, "unit": "% UTC"}, {"measurement": "Follistatin (% UTC)", "setting": "[3]; [8]", "value": 119, "unit": "% UTC"}]}
{"substance": "328765 (antisense eG*eA*e[5mC]*eA*eA*dA*d[5mC]*dT*d[5mC]*dA*dG*d[5mC]*dT*dA*dT*eA*eT*eT*eG*eT) [compound 328765]", "values": [{"measurement": "PEPCK-c (% UTC)", "setting": "[1]; [7]", "value": 93, "unit": "% UTC"}, {"measurement": "PEPCK-c (% UTC)", "setting": "[1]; [8]", "value": 73, "unit": "% UTC"}, {"measurement": "IGFBP-1 (% UTC)", "setting": "[2]; [7]", "value": 88, "unit": "% UTC"}, {"measurement": "IGFBP-1 (% UTC)", "setting": "[2]; [8]", "value": 94, "unit": "% UTC"}, {"measurement": "Follistatin (% UTC)", "setting": "[3]; [7]", "value": 87, "unit": "% UTC"}, {"measurement": "Follistatin (% UTC)", "setting": "[3]; [8]", "value": 97, "unit": "% UTC"}]}
{"substance": "ISIS 341804: SEQ ID NO: 761, targeting mir-94/mir-106b (antisense ATCTGCACTGTCAGCACTTT; all 2'-MOE, all phosphorothioate, methylation of C not given here)", "values": [{"measurement": "decrease in PEPCK-c mRNA", "setting": "[1]; 100 nM", "value": 56, "unit": "%"}]}
{"substance": "328388 (eT*e[5mC]*e[5mC]*e[5mC]*eA*dT*dA*dG*d[5mC]*dA*dG*dG*dG*d[5mC]*dA*eG*eA*eG*e[5mC]*e[5mC]; antisense) [compound 328388]", "values": [{"measurement": "G1 (percentage of cells in phase of the cell cycle)", "setting": "[4]", "value": 57.5, "unit": "%"}, {"measurement": "G2/M (percentage of cells in phase of the cell cycle)", "setting": "[4]", "value": 14.6, "unit": "%"}, {"measurement": "S (percentage of cells in phase of the cell cycle)", "setting": "[4]", "value": 28, "unit": "%"}, {"measurement": "SubG1 (percentage of cells in phase of the cell cycle)", "setting": "[4]", "value": 4.0, "unit": "%"}, {"measurement": "aneuploid (percentage of cells)", "setting": "[4]", "value": 14.5, "unit": "%"}, {"measurement": "% cells aneuploid", "setting": "[5]; [9]", "value": 85, "unit": "%"}, {"measurement": "% cells in cell cycle phase G1", "setting": "[5]; [9]", "value": 110, "unit": "%"}, {"measurement": "% cells in cell cycle phase G2/M", "setting": "[5]; [9]", "value": 115, "unit": "%"}, {"measurement": "% cells in cell cycle phase S", "setting": "[5]; [9]", "value": 83, "unit": "%"}, {"measurement": "% cells in cell cycle phase subG1", "setting": "[5]; [9]", "value": 120, "unit": "%"}, {"measurement": "% cells in cell cycle phase: G1", "setting": "[5]; [10]", "value": 99, "unit": "%"}, {"measurement": "% cells in cell cycle phase: G2/M", "setting": "[5]; [10]", "value": 102, "unit": "%"}, {"measurement": "% cells in cell cycle phase: S", "setting": "[5]; [10]", "value": 101, "unit": "%"}, {"measurement": "% cells in cell cycle phase: aneuploid", "setting": "[5]; [10]", "value": 126, "unit": "%"}, {"measurement": "% cells in cell cycle phase: subG1", "setting": "[5]; [10]", "value": 112, "unit": "%"}, {"measurement": "Fold Increase over UTC (caspase-3 activity, apoptosis)", "setting": "[6]", "value": 0.9, "unit": "fold"}]}
{"substance": "328702 (eT*eG*eA*e[5mC]*e[5mC]*dA*d[5mC]*dA*dA*dA*dA*dT*dT*d[5mC]*d[5mC]*eT*eT*eA*e[5mC]*eA; antisense) [compound 328702]", "values": [{"measurement": "PEPCKc mRNA expression", "setting": "[1]", "value": 96}, {"measurement": "IGFBP1 mRNA expression", "setting": "[2]", "value": 83}, {"measurement": "Follistatin mRNA expression", "setting": "[3]", "value": 88}]}
{"substance": "TCAGTTTTGCATGGATTTGCACA (anti-miR; chemistry not fully specified) [ISIS 327922, uniform 2′-MOE PS; targets mir-19b-2]", "values": [{"measurement": "reduction of PEPCK-c mRNA expression", "setting": "[1]; HepG2, 1 nM insulin, 100 nM", "value": 24, "unit": "%"}, {"measurement": "decrease in PEPCK-c mRNA", "setting": "[1]; 100 nM", "value": 23, "unit": "%"}]}
